The record followed here is patent publication US11780852B2, “Methods for treating Crohn's disease using 3-((1R,3s,5S)-3-((7-((5-methyl-1H-pyrazol-3-yl)amino)-1,6-naphthyridin-5-yl)amino)-8-azabicyclo[3.2.1]octan-8-yl)propanenitrile” (priority 2015, dated 2023).

The structures appear in SMILES notation.

This experiment deals with oxazolone-induced colitis. Nature of the experiment: Mouse model of oxazolone-induced colitis. The class given is in vivo, BALB/C mice. The conditions noted are these: PO, 1, 3, and/or 10 mg/kg BID (doses up to 10 mg/kg BID). How it is done: Assay 7: Mouse Model of Oxazalone-Induced Colitis
Oxazolone-induced colitis is an experimental model that has a histological resemblance to human ulcerative colitis (Heller et al. Immunology, 2002, 17, 629-638). Adult BALB/C mice from Harlan were used in the assay. On day 1, animals were lightly anesthetized with isoflurane and the hairs between the shoulder were carefully removed before oxazolone (4%, 150 μL, 4:1 acetone:olive oil formulation) or vehicle solution was slowly applied for skin sensitization. Seven days after skin sensitization, the mice were fasted overnight, anesthetized with isoflurane inhalation, and a 1 mL syringe equipped with a 3.5-F catheter, filled with oxazolone solution, was inserted carefully about 4 cm into the colon of the mouse. Following insertion, 50 μL of the oxazolone solution (1%, 1:1 ethanol:water formulation) was injected very slowly (over 30 sec using an injection pump) into the colon. The catheter was removed and the mice were held vertically (head down) for 2 min to ensure that the entire oxazolone solution remained inside the colon. Drug treatment (PO, BID or TID) or vehicle was initiated a day prior to the oxazolone intrarectal (IR) challenge. Two-day post oxazolone intrarectal challenge, the Disease Activity Index (DAI) was assessed by treatment-blinded experimenters for each mouse according to the criteria score: stool consistency score (0, normal; 2, loose; 4, diarrhea), gross bleeding score (0, absence; 2, blood tinged; 4, presence), and weight loss score (0, none; 1, 1%-5%; 2, 5%-10^%; 3, 10%-20%; 4, more than 20%); DAI=average of (stool consistency score+gross bleeding score+weight loss score).
Selected compounds of the invention were tested in the assay. Efficacy in the model is evidenced by a decrease in DAI score as compared with the score from vehicle treated animals.
Regarding `COCCS(=O)(=O)N1[C@@H]2CC[C@H]1C[C@H](Nc1nc(Nc3cc(C)[nH]n3)cc3ncccc13)C2` [Example 6, N^5-((1R,3s,5S)-8-((2-methoxyethyl)sulfonyl)-8-azabicyclo[3.2.1]octan-3-yl)-N^7-(5-methyl-1H-pyrazol-3-yl)-1,6-naphthyridine-5,7-diamine], the “DAI score as compared with vehicle treated animals” value is given as “statistically significant decrease”.
With `Cc1cc(Nc2cc3ncccc3c(N[C@@H]3C[C@H]4CCC[C@@H](C3)N4S(=O)(=O)N3CC(C#N)C3)n2)n[nH]1` [Example 11, 1-(((1R,3s,5S)-3-((7-((5-methyl-1H-pyrazol-3-yl)amino)-1,6-naphthyridin-5-yl)amino)-9-azabicyclo[3.3.1]nonan-9-yl)sulfonyl)azetidine-3-carbonitrile], the “DAI score as compared with vehicle treated animals” value is “did not exhibit a statistically significant decrease”.
For `Cc1cc(Nc2cc3ncccc3c(N[C@@H]3C[C@H]4CCC[C@@H](C3)N4CC(=O)N(C)C)n2)n[nH]1` [Example 1-38], the “DAI score as compared with vehicle treated animals” value was “statistically significant decrease”.
Consider `Cc1cc(Nc2cc3ncccc3c(N[C@@H]3C[C@H]4CCC[C@@H](C3)N4C(=O)CN(C)C)n2)n[nH]1` [Example 4, 2-(Dimethylamino)-1-((1R,3s,5S)-3-((7-((5-methyl-1H-pyrazol-3-yl)amino)-1,6-naphthyridin-5-yl)amino)-9-azabicyclo[3.3.1]nonan-9-yl)ethan-1-one], for which the “DAI score as compared with vehicle treated animals” value is “statistically significant decrease”.
As for `CCOCC(=O)N1[C@@H]2CCC[C@H]1C[C@H](Nc1nc(Nc3cc(C)[nH]n3)cc3ncccc13)C2` [Example 2-17], the “DAI score as compared with vehicle treated animals” value is “did not exhibit a statistically significant decrease”.
In the case of `CCC(C)C(=O)N1C2CCC1CC(Nc1nc(Nc3cc(C)[nH]n3)cc3ncccc13)C2` (stereo not drawn) [Example 2-6], the “DAI score as compared with vehicle treated animals” value was “did not exhibit a statistically significant decrease”.
Turning to `Cc1cc(Nc2cc3ncccc3c(N[C@@H]3C[C@H]4CC[C@@H](C3)N4C(=O)C(F)F)n2)n[nH]1` [Example 5, 2,2-difluoro-1-((1R,3s,5S)-3-((7-((5-methyl-1H-pyrazol-3-yl)amino)-1,6-naphthyridin-5-yl)amino)-8-azabicyclo[3.2.1]octan-8-yl)ethan-1-one], the “DAI score as compared with vehicle treated animals” value is recorded as “statistically significant decrease”.
For `Cc1cc(Nc2cc3ncccc3c(N[C@@H]3C[C@H]4CC[C@@H](C3)N4S(=O)(=O)c3cccnc3)n2)n[nH]1` [Example 3, N^7-(5-methyl-H-pyrazol-3-yl)-N-((1R,3s,5S)-8-(pyridin-3-ylsulfonyl)-8-azabicyclo[3.2.1]octan-3-yl)-1,6-naphthyridine-5,7-diamine], the “DAI score as compared with vehicle treated animals” value is “statistically significant decrease”.
As for `Cc1cc(Nc2cc3ncccc3c(N[C@@H]3C[C@H]4CCC[C@@H](C3)N4C(=O)Cc3ccccc3)n2)n[nH]1` [Example 2-24], the “DAI score as compared with vehicle treated animals” value was “did not exhibit a statistically significant decrease”.
With `Cc1cc(Nc2cc3ncccc3c(N[C@@H]3C[C@H]4CC[C@@H](C3)N4S(=O)(=O)N3CC(C#N)C3)n2)n[nH]1` [Example 13, 1-(((1R,3s,5S)-3-((7-((5-methyl-1H-pyrazol-3-yl)amino)-1,6-naphthyridin-5-yl)amino)-8-azabicyclo[3.2.1]octan-8-yl)sulfonyl)azetidine-3-carbonitrile], the “DAI score as compared with vehicle treated animals” value was “did not exhibit a statistically significant decrease”.
As for `Cc1cc(Nc2cc3ncccc3c(NC3CC4CCCC(C3)N4C(=O)C(C)O)n2)n[nH]1` (stereo not drawn) [Example 2-16], the “DAI score as compared with vehicle treated animals” value is “did not exhibit a statistically significant decrease”.
The entry for `Cc1cc(Nc2cc3ncccc3c(N[C@@H]3C[C@H]4CC[C@@H](C3)N4S(=O)(=O)CC(C)C)n2)n[nH]1` [Example 4-3] is “did not exhibit a statistically significant decrease”.
